Data on 12 compounds can be found in patent publication US9290551B2, “Compounds for treating papilloma virus infection” (NanoVir, LLC, priority 2012, dated 2016).

What all share (type): cell-based, Human papilloma virus
One test deals with HPV18. Nature of the test: HPV18 DNA levels in keratinocytes by real-time PCR. As to conditions: effective (pseudo) IC50. As for the experimental part:
(§1) Human keratinocytes, including those maintaining HPV episomes, are cultured on mitomycin C-treated J2 3T3 cells in media containing three parts Dulbecco's modified Eagle medium (DMEM) and one part F12 media, our modification of published methods (Rheinwald and Green, 1975). Media (E Media) is supplemented with 0.4 μg/mL hydrocortisone, 10 ng/mL cholera toxin, 5 μg/mL insulin, 24 μg/mL adenine, 5 μg/mL transferrin, […] (T3), 10 ng/mL epidermal growth factor (EGF), 1% penicillin-streptomycin, and 5% fetal bovine serum (FBS). All cells are passaged at 70% confluency at a split ratio of 1:5.
(§2) Polyamides for HPV 18 are dissolved at 10 mM in 100% DMSO and diluted with H2O to 1 mM. Polyamides are added to cells in E media at final concentrations of 0.1-10 μM, with final DMSO concentrations of 0.1%. As controls, cells are incubated with normal E media and E media containing the “vehicle” 0.1% DMSO. The HPV DNA levels are then quantified according to previously published procedures (Garner-Hamrick and Fisher, Virology, 301, 334-41, 2002). After incubation, cells are harvested from the plates by either trypsinization or direct lysis with proteinase K digestion buffer (PK buffer: 100 mM NaCl, 10 mM Tris pH 8, 25 mM EDTA, 0.5% SDS, 0.1 mg/mL proteinase K). Trypsinized cells are counted on a hemocytometer and pelleted by centrifugation. Episomal HPV is isolated by the Hirt method (Hirt, 1967) and cell pellets are lysed in 0.6% SDS with 10 mM EDTA. NaCl is next added to a final concentration of 1 M. Following an overnight incubation at 4° C., precipitates containing the chromosomal DNA are spun down and episomal DNA precipitated by the addition of isopropanol. Cells lysed directly in PK buffer are transferred to microfuge tubes and incubated at 50° C. for 2 h. Lysates are then extracted with phenol/chloroform/isoamyl alcohol and spun through a phase lock gel (Eppendorf, Hamburg, Germany). Total DNA is then precipitated with 0.3 M NaOAc and 2.5 vol. ethanol and resuspended in Tris-EDTA (TE) buffer.
Viral DNA levels are next quantified according to variations on our previously published methods (Garner-Hamrick and Fisher, Virology, 301, 334-41, 2002). Quantitative PCR is performed using Real-Time PCR technology on an ABI PRISM 7700 Sequence Detector. All primers and probes were designed using Primer Express 1.0 (ABI). For HPV 18, PCR primer-probe sets were designed within the L1 gene:
(§3) All primers and probes are synthesized and HPLC purified by Applied Biosystems (Foster City, Calif.). The HPV probes are labeled with the 5′ reporter dye FAM (6-carboxy-fluorescein) and the 3′ quencher dye TAMRA (6-carboxytetramethyl-rhodamine). A standard curve is generated using a range of 10^8 to 10 copies/reaction of cloned, genomic HPV31 or HPV18 DNA using the following formula: (1.82×10^15)(μg/μL stock DNA)/(length in base pairs)(2)=copies/μL stock DNA. PCR reactions contain final concentrations of 1× Universal Master Mix (PE Applied Biosystems), 200 nM of each primer, and 250 nM probe (PE Applied Biosystems) in a reaction volume of 25 μL. Each Hirt-isolated DNA sample is analyzed in triplicate reactions for episomal HPV. Copies/reaction are determined from the standard curve, and copies/cell determined according to the following formula: (copies/reaction)×(DNA dilution)/(total # cells)=copies/cell.
(In general: Quantitative PCR measures a nucleic acid by following its amplification.)

The next test concerns HPV 16. Nature of the test: HPV 16 episome DNA levels in W12E cells by Q-PCR (Taqman). As to conditions: for IC50: effective (pseudo) IC50, 50% reduction in HPV DNA relative to vehicle (0.1% DMSO), read-out: HPV-16 IC50. As for the experimental part: Cells maintaining HPV 16 DNA were cultured for 72 hours in the presence of cidofovir, interferon γ or polyamide. Viral DNA was then quantified using real-time PCR and compared to vehicle (DMSO)-treated control cultures.
Compounds were initially tested for effects on HPV 16 episome DNA levels in W12E cells by Q-PCR (Taqman™) over 3 concentration ranges (0.1, 1 and 10 μM). W12E cells are a cervical keratinocyte cell line originally identified by M. Stanley (Cambridge University), and later optimized and provided by P. Lambert (U. of Wisconsin). […] In all cases (initial tests and follow-up IC50 tests), dose testing was performed in triplicate. […] Furthermore, all experiments were conducted in triplicate, multiple times. The data were then combined, pseudo or effective IC50 values calculated, and variance determined to reveal the fit of the data to the model and its reliability.
Keratinocytes that maintain HPV 16 episomes were treated with increasing concentrations of polyamides.

Another test relates to HPV31. In words: HPV31 DNA levels in keratinocytes by real-time PCR. As to conditions: effective (pseudo) IC50. The procedure:
as §1, §2
HPV31 primers-probe sets for PCR were also designed within the L1 gene:
as §3

The IC50 is the midpoint of a concentration-inhibition curve. Turning to `CN(C)CCCNC(=O)CCNC(=O)c1cc(NC(=O)c2cc(NC(=O)c3cc(NC(=O)CCNC(=O)c4cc(NC(=O)c5cc(NC(=O)c6cc(NC(=O)CCNC(=O)c7cc(NC(=O)c8cc(NC(=O)c9cc(NC(=O)CCCNC(=O)c%10cc(NC(=O)c%11cc(NC(=O)CCNC(=O)c%12cc(NC(=O)c%13cc(NC(=O)c%14cc(NC(=O)CCNC(=O)c%15cc(NC(=O)c%16cc(NC(=O)c%17cc(NC(=O)c%18nccn%18C)cn%17C)cn%16C)cn%15C)cn%14C)cn%13C)cn%12C)cn%11C)cn%10C)cn9C)cn8C)cn7C)cn6C)cn5C)cn4C)cn3C)cn2C)cn1C` [Polyamide 1047, ImPPPβPPPβPPγPPPβPPPβPPPβDp], the values for the IC50 in the test with HPV18, in the test on HPV 16 and in the test on HPV31 were not below 1 µM, more than 1 µM and not below 1 µM, respectively.

As for `CN(CCCN)CCCNC(=O)CCNC(=O)c1cc(NC(=O)c2cc(NC(=O)c3cc(NC(=O)CCNC(=O)c4cc(NC(=O)c5cc(NC(=O)c6cc(NC(=O)CCNC(=O)c7cc(NC(=O)c8cc(NC(=O)c9cc(NC(=O)CCCNC(=O)c%10cc(NC(=O)c%11cc(NC(=O)CCNC(=O)c%12cc(NC(=O)c%13cc(NC(=O)c%14cc(NC(=O)CCNC(=O)c%15cc(NC(=O)c%16cc(NC(=O)c%17cc(NC(=O)c%18nccn%18C)cn%17C)cn%16C)cn%15C)cn%14C)cn%13C)cn%12C)cn%11C)cn%10C)cn9C)cn8C)cn7C)cn6C)cn5C)cn4C)cn3C)cn2C)cn1C` [Polyamide 1048, ImPPPβPPPβPPγPPPβPPPβPPPβTa], the IC50 with HPV18, in the test on HPV 16 and with HPV31 was 0.1 to 1 µM throughout.

As to `CN(CCCN)CCCNC(=O)CCNC(=O)c1cc(NC(=O)c2cc(NC(=O)c3cc(NC(=O)CCNC(=O)c4cc(NC(=O)c5cc(NC(=O)c6cc(NC(=O)CCNC(=O)c7cc(NC(=O)c8cc(NC(=O)[C@@H](CCN)NC(=O)c9cc(NC(=O)c%10cc(NC(=O)CCNC(=O)c%11nc(NC(=O)c%12cc(NC(=O)c%13cc(NC(=O)CCNC(=O)c%14cc(NC(=O)c%15cc(NC(=O)c%16nccn%16C)cn%15C)cn%14C)cn%13C)cn%12C)cn%11C)cn%10C)cn9C)cn8C)cn7C)cn6C)cn5C)cn4C)cn3C)cn2C)cn1C` [Polyamide 1049, ImPPβPPIβPPγNH2PPβPPPβPPPβTa], the IC50 in the test on HPV18 was 0.1 to 1 µM; in the test on HPV 16, 0.1 to 1 µM; in the test on HPV31, not below 1 µM.

For `CN(C)CCCNC(=O)CCNC(=O)c1cc(NC(=O)c2cc(NC(=O)c3cc(NC(=O)CCNC(=O)c4cc(NC(=O)c5cc(NC(=O)c6cc(NC(=O)CCNC(=O)c7cc(NC(=O)c8cc(NC(=O)[C@@H](CCN)NC(=O)c9cc(NC(=O)c%10cc(NC(=O)CCNC(=O)c%11nc(NC(=O)c%12cc(NC(=O)c%13cc(NC(=O)CCNC(=O)c%14cc(NC(=O)c%15cc(NC(=O)c%16nccn%16C)cn%15C)cn%14C)cn%13C)cn%12C)cn%11C)cn%10C)cn9C)cn8C)cn7C)cn6C)cn5C)cn4C)cn3C)cn2C)cn1C` [Polyamide 1050, ImPPβPPIβPPγNH2PPβPPPβPPPβDp], the IC50 in the test on HPV18 was not below 1 µM; with HPV 16 it was 0.1 to 1 µM; with HPV31, 0.1 to 1 µM.

For the compound `CN(C)CCCNC(=O)CCNC(=O)c1cc(NC(=O)c2cc(NC(=O)c3cc(NC(=O)CCNC(=O)c4cc(NC(=O)c5cc(NC(=O)c6cc(NC(=O)CCNC(=O)c7cc(NC(=O)c8cc(NC(=O)[C@H](N)CCNC(=O)c9cc(NC(=O)c%10cc(NC(=O)CCNC(=O)c%11nc(NC(=O)c%12cc(NC(=O)c%13cc(NC(=O)CCNC(=O)c%14cc(NC(=O)c%15cc(NC(=O)c%16nccn%16C)cn%15C)cn%14C)cn%13C)cn%12C)cn%11C)cn%10C)cn9C)cn8C)cn7C)cn6C)cn5C)cn4C)cn3C)cn2C)cn1C` [Polyamide 1066, ImPPβPPIβPPγNH2PPβPPPβPPPβDp], the IC50 in the test on HPV18, with HPV 16 and with HPV31 was 0.1 to 1 µM throughout.

`CN(CCCN)CCCNC(=O)CCNC(=O)c1cc(NC(=O)c2cc(NC(=O)c3cc(NC(=O)CCNC(=O)c4cc(NC(=O)c5cc(NC(=O)c6cc(NC(=O)CCNC(=O)c7cc(NC(=O)c8cc(NC(=O)[C@H](N)CCNC(=O)c9cc(NC(=O)c%10cc(NC(=O)CCNC(=O)c%11nc(NC(=O)c%12cc(NC(=O)c%13cc(NC(=O)CCNC(=O)c%14cc(NC(=O)c%15cc(NC(=O)c%16nccn%16C)cn%15C)cn%14C)cn%13C)cn%12C)cn%11C)cn%10C)cn9C)cn8C)cn7C)cn6C)cn5C)cn4C)cn3C)cn2C)cn1C` [Polyamide 1067, ImPPβPPIβPPγNH2PPβPPPβPPPβTa]: the IC50 in the test with HPV18, in the test with HPV 16 and in the test with HPV31 was 0.1 to 1 µM in each case.

Take `CC(=O)N[C@H](CCNC(=O)c1cc(NC(=O)c2cc(NC(=O)CCNC(=O)c3nc(NC(=O)c4cc(NC(=O)c5cc(NC(=O)CCNC(=O)c6cc(NC(=O)c7cc(NC(=O)c8nccn8C)cn7C)cn6C)cn5C)cn4C)cn3C)cn2C)cn1C)C(=O)Nc1cc(C(=O)Nc2cc(C(=O)NCCC(=O)Nc3cc(C(=O)Nc4cc(C(=O)Nc5cc(C(=O)NCCC(=O)Nc6cc(C(=O)Nc7cc(C(=O)Nc8cc(C(=O)NCCC(=O)NCCCN(C)C)n(C)c8)n(C)c7)n(C)c6)n(C)c5)n(C)c4)n(C)c3)n(C)c2)n(C)c1` [Polyamide 1068, ImPPβPPIβPPγNHAcPPβPPPβPPPβDp]: the IC50 with HPV18, with HPV 16 and with HPV31 was 0.1 to 1 µM in each case.

For `CN(CCCN)CCCNC(=O)c1cc(NC(=O)c2cc(NC(=O)c3cc(NC(=O)c4cc(NC(=O)c5cc(NC(=O)CCNC(=O)c6cc(NC(=O)c7cc(NC(=O)CCCNC(=O)c8cc(NC(=O)c9cc(NC(=O)c%10cc(NC(=O)CCNC(=O)c%11cc(NC(=O)c%12cc(NC(=O)c%13nccn%13C)cn%12C)cn%11C)cn%10C)cn9C)cn8C)cn7C)cn6C)cn5C)cn4C)cn3C)cn2C)cn1C` [Polyamide 1069, ImPPβPPPγPPβPPPPPTa], the figures for the IC50 in the test with HPV18, with HPV 16 and in the test with HPV31 were not below 1 µM, 0.1 to 1 µM and 0.1 to 1 µM, respectively.

As to “ImPPPβPPβPPPγNH2PPPβPPPβPPPβDp [Polyamide 1003]”, the IC50 with HPV18, in the test on HPV 16 and with HPV31 was 0.1 to 1 µM each time.

For “ImPPPβPPβPPPγPPPβPPPβPPPβDp [Polyamide 1004]”, the 50% inhibitory concentration (IC50) is not above 0.1 µM with HPV18, 0.1 to 1 µM in the test on HPV 16 and 0.1 to 1 µM with HPV31. Also, the “effect on absolute HPV 16 DNA levels” value in the test with HPV 16 (higher doses, in some experiments, FIG. 3) is recorded as “nearly complete elimination of detectable viral DNA”.

As for “ImPPβPPIβPPγPPβPPPβPPPPTa [Polyamide 1070]”, the IC50 in the test on HPV18, in the test with HPV 16 and in the test with HPV31 was 0.1 to 1 µM in each case.

For the compound ImPPβPPPγNH2PPβPPPPβDp [Polyamide 1024], the figures for the IC50 with HPV18, with HPV 16 and with HPV31 were not below 1 µM, more than 1 µM and 0.1 to 1 µM, respectively.
